Assay [1] addresses human activated kallikrein enzyme (Homo sapiens, UniProt P03952). Put plainly: Plasma kallikrein inhibition, fluorogenic PFR-AMC substrate, 500 pM activated kallikrein format. The class given is biochemical. To be noted: 500 pM activated kallikrein, 300 uM PFR-AMC, 30 min preincubation, 10 min reaction; read-out: Primary Dose Response Assay: Average EC50. In short, it runs like this:
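Fluorogenic readout (ex 380 / em 460 nm) after 10 min room-temperature reaction with 300 uM Pro-Phe-Arg-AMC substrate, following 30 min preincubation of inhibitors with 500 pM enzyme. Buffer: Tris pH 7.5, EDTA, NaCl, PEG-400, Triton X-100. Values given as EC50 ranges.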

The target in the next assay is T1, plasma kallikrein (Homo sapiens, UniProt P03952).
T1 construct: from tissue
T1 sequence (P03952 391-638 limits assumed): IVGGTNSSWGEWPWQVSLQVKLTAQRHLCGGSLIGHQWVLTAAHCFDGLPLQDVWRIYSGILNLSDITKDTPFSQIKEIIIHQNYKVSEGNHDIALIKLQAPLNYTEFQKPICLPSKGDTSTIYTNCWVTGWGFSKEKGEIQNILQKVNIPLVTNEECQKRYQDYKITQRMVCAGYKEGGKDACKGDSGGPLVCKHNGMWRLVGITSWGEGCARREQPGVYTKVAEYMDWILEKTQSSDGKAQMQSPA
T1 sequence (P03952 20-390 partner limits assumed): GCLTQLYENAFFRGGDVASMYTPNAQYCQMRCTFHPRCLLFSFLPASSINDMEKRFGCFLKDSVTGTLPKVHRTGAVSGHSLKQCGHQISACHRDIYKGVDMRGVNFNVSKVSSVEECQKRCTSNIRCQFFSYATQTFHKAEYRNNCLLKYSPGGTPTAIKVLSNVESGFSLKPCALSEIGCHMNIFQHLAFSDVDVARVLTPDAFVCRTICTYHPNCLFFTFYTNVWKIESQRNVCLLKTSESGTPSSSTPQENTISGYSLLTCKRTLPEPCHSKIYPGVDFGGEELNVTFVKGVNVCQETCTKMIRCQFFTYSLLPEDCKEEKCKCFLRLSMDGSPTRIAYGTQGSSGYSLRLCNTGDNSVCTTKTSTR
Briefly: Neat human plasma assay, FXIIa contact pathway-activated, PFR-AMC substrate. The class given is biochemical. The following applies: citrated human plasma 78% final, 10 nM human FXIIa, 100 μM PFR-AMC; read-out: Human Plasma Assay: IC90. As for the experimental part: To analyze inhibition of plasma kallikrein in an ex vivo setting, the potency of compounds was measure in contact pathway-activated plasma assays. In a fluorogenic peptide substrate assay, test compounds dissolved in DMSO were added to sodium citrate collected human or rat plasma in a 96-well microplate. Alternatively, citrated plasma was collected from rats administered the compounds orally or by IV. 10 nM of human FXIIa (Enzyme Research Laboratories) diluted in pKal buffer (20 mM Tris-HCl, pH 7.5, 150 mM NaCl, 1 mM EDTA, 0.1% PEG-8000, and 0.1% Triton X-100) was added to the plasma, followed by the 100 μM of the profluorescent, synthetic plasma kallikrein substrate PFR-AMC (also diluted in pKal buffer). Final plasma concentration in the reaction was 78%. Fluorescence was immediately monitored by excitation/emission wavelengths of 360 nm/480 nm respectively over a period of 5 minutes in a microplate reader. The resulting linear increase in fluorescence emission (reflecting pKal proteolysis of PFR-AMC substrate) was fit to extract a proteolytic rate (fluorescent units over time), and this rate was subsequently plotted against compound inhibitor concentration. Resulting plots were fit to a standard 4-parameter IC50/IC90 equation to determine min/max values, IC50/90, and slope. All experimental steps were performed at room temperature. Table 50 provides results of the assay.

Where only a bound is given, the exact number is not on record here.

Sequence of human activated kallikrein enzyme (P03952 391-638 limits assumed): as the sequence (P03952 391-638 limits assumed) above
Sequence of human activated kallikrein enzyme (P03952 20-390 partner limits assumed): as the sequence (P03952 20-390 partner limits assumed) above

In general, EC50 refers to the concentration needed to bring the measured effect to its halfway point. A word on the IC90: it is the concentration at which the effect reaches the 90% level. On to `CN1CCC(F)(c2cc(C3CC3)cn3cc(CNc4ccnc(NC(=O)[C@H]5C[C@@H]5c5cccc(Cl)c5)c4)nc23)CC1` [Example I-229, (1S,2S)-2-(3-chlorophenyl)-N-(4-(((6-cyclopropyl-8-(4-fluoro-1-methylpiperidin-4-yl)imidazo[1,2-a]pyridin-2-yl)methyl)amino)pyridin-2-yl)cyclopropane-1-carboxamide], for which the EC50 in assay [1] is less than 1 nM. The IC90 at plasma kallikrein was less than 400 nM.
On to `Cc1ccnc([C@H]2C[C@@H]2C(=O)Nc2cc(N(C)Cc3cn4cc(C5CC5)cc(N5CC(=O)N(CCO)C5=O)c4n3)ncn2)n1` [Example 462, (1S,2S)-N-(6-(((6-cyclopropyl-8-(3-(2-hydroxyethyl)-2,4-dioxoimidazolidin-1-yl)imidazo[1,2-a]pyridin-2-yl)methyl)(methyl)amino)pyrimidin-4-yl)-2-(4-methylpyrimidin-2-yl)cyclopropane-1-carboxamide], for which the EC50 in assay [1] was less than 1 nM. Further, the IC90 on plasma kallikrein is less than 400 nM.
With `Cc1ccnc([C@H]2C[C@@H]2C(=O)Nc2cc(OCc3cn4cc(C5CC5)cc(N5CC(=O)N(CCOCc6ccccc6)C5=O)c4n3)ncn2)n1` (racemic) [Example 31, rac-(1S*,2S*)—N-(6-((8-(3-(2-(benzyloxy)ethyl)-2,4-dioxoimidazolidin-1-yl)-6-cyclopropylimidazo[1,2-a]pyridin-2-yl)methoxy)pyrimidin-4-yl)-2-(4-methylpyrimidin-2-ylcyclopropane-1-carboxamide], the EC50 in assay [1] was 1 to 10 nM. The IC90 at plasma kallikrein lay in the range of 10000 to 48000 nM.
On to `Cc1ccnc([C@H]2C[C@@H]2C(=O)Nc2cc(NCc3cn4cc(C5CC5)cc(N5CC(=O)N(C)C5=O)c4n3)nc(CF)n2)n1` (racemic) [Example 353, rac-(1S*,2S*)—N-(6-(((6-cyclopropyl-8-(3-methyl-2,4-dioxoimidazolidin-1-yl)imidazo[1,2-a]pyridin-2-yl)methyl)amino)-2-(fluoromethyl)pyrimidin-4-yl)-2-(4-methylpyrimidin-2-yl)cyclopropane-1-carboxamide], for which, in assay [1], the EC50 was less than 1 nM. At plasma kallikrein, the concentration for an effect of 90% (IC90) is 400 to 1500 nM.
Consider `Cc1ccnc([C@H]2C[C@@H]2C(=O)Nc2cc(NCc3cn4cc(C5CC5)cc(N5CC(=O)N(C)C5=O)c4n3)nc(C)n2)n1` (racemic) [Example 366, rac-(1S*,2S*)-N-(6-(((6-cyclopropyl-8-(3-methyl-2,4-dioxoimidazolidin-1-yl)imidazo[1,2-a]pyridin-2-yl)methyl)amino)-2-methylpyrimidin-4-yl)-2-(4-methylpyrimidin-2-yl)cyclopropane-1-carboxamide], for which the EC50 in assay [1] was less than 1 nM. Moreover, on plasma kallikrein, the IC90 is less than 400 nM.
`Cc1ccnc([C@H]2C[C@@H]2C(=O)Nc2cc(NCc3cn4cc(C5CC5)cc(N5CC(=O)N(C)C5=O)c4n3)ncn2)n1` (single isomer, unassigned) [Example I-260]: the EC50 in assay [1] is less than 1 nM. Also, the IC90 at plasma kallikrein was less than 400 nM.
For `Cc1nc([C@H]2C[C@@H]2C(=O)Nc2cc(N[C@H](C)c3cn4cc(C5CC5)cc(N5CC(=O)N(C)C5=O)c4n3)ncn2)ncc1F` (relative stereo) [Example 492, rac-(-(1S*,2S*)-N-(6-(((R)-1-(6-cyclopropyl-8-(3-methyl-2,4-dioxoimidazolidin-1-yl)imidazo[1,2-a]pyridin-2-yl)ethyl)amino)pyrimidin-4-yl)-2-(5-fluoro-4-methylpyrimidin-2-yl)cyclopropane-1-carboxamide], the EC50 in assay [1] was less than 1 nM. The IC90 at plasma kallikrein lay in the range of 400 to 1500 nM.
Turning to `O=C(Nc1cc(NCc2cn3cc(C4CC4)cc(N4CCN5CC(O)CC5C4)c3n2)ncn1)[C@H]1C[C@@H]1c1cccc(Cl)c1` (stereo partly drawn) [Example I-196, (1S,2S)-2-(3-chlorophenyl)-N-(6-(((6-cyclopropyl-8-(7-hydroxyhexahydropyrrolo[1,2-a]pyrazin-2(1H)-yl)imidazo[1,2-a]pyridin-2-yl)methyl)amino)pyrimidin-4-yl)cyclopropane-1-carboxamide], in assay [1], the EC50 lay in the range of 1 to 10 nM. Further, the IC90 at plasma kallikrein fell in the range of 1500 to 10000 nM.

The values above are taken from patent US20240228488A1 (TAKEDA PHARMACEUTICAL COMPANY LIMITED, priority 2021, published 2024).
